Experimental data: ChEMBL document CHEMBL4342433, “Synthesis and anti-CVB3 activity of 4-amino acid derivative substituted pyrimidine nucleoside analogues” (Bioorg Med Chem Lett, 2020)

Tests used:
Coxsackievirus [1] = test: Antiviral activity against CVB3 infected in African green monkey Vero cells by MTT assay; type: functional, organism-based, B3
Vero = test: (§1) Cytotoxicity in African green monkey Vero cells assessed as reduction in cell viability by MTT assay; type: cell-based; details: chlorocebus sabaeus, vero; read-out: TC50 (the source's name)
[2] = as §1; type: cell-based; details: chlorocebus sabaeus, Vero cells; read-out: TC50 (the source's name)
Coxsackievirus [3] = test: Antiviral activity against CVB3 infected in African green monkey Vero cells assessed as reduction in degree of lesion incubated for 5 days by microscopic method; type: functional, organism-based; details: B3
[4] = Therapeutic Index, ratio of TC50 for African green monkey Vero cells to IC50 for CVB3 infected in African green monkey Vero cells; type: toxicity

| Structure (SMILES) | IC50 (Coxsackievirus [1]; Coxsackievirus, B3, Vero) [µM] | CC50 [2] [µM] | further results |
| --- | --- | --- | --- |
| [N-]=[N+]=N[C@]1(CO)O[C@@H](n2ccc(N[C@@H](CCC(=O)O)C(=O)O)nc2=O)[C@@H](F)[C@@H]1O | 488 |  | CC50 (Vero): 30.7 µM |
| CCNC(=O)CC[C@H](Nc1ccn([C@@H]2O[C@@](CO)(N=[N+]=[N-])[C@@H](O)[C@@H]2F)c(=O)n1)C(=O)NCC | > 1000 | 150 |  |
| [N-]=[N+]=N[C@]1(CO)O[C@@H](n2ccc(N[C@@H](CCC(N)=O)C(N)=O)nc2=O)[C@@H](F)[C@@H]1O | > 1000 | 160 |  |
| COC(=O)CC[C@H](Nc1ccn([C@@H]2O[C@@](CO)(N=[N+]=[N-])[C@@H](O)[C@@H]2F)c(=O)n1)C(=O)OC | 1000 | 257 |  |
| COC(=O)CC[C@H](Nc1ccn([C@@H]2O[C@@](CO)(N=[N+]=[N-])[C@@H](O)[C@@H]2F)c(=O)n1)C(=O)O | 648 | 21.5 |  |
| COC(=O)[C@H](CCC(=O)O)Nc1ccn([C@@H]2O[C@@](CO)(N=[N+]=[N-])[C@@H](O)[C@@H]2F)c(=O)n1 | 870 | 9.3 | Activity (Coxsackievirus [3]): Dose-dependent effect |
| NC(=O)c1ncn([C@@H]2O[C@H](CO)[C@@H](O)[C@H]2O)n1 [RIBAVIRIN] | 885 | 31.2 | selectivity ratio ([4]; Vero cells, read-out: TI): 28.3 |
| CNC(=O)CC[C@H](Nc1ccn([C@@H]2O[C@@](CO)(N=[N+]=[N-])[C@@H](O)[C@@H]2F)c(=O)n1)C(=O)NC | > 1000 | 126 |  |
| [K+].[K+].[N-]=[N+]=N[C@]1(CO)O[C@@H](n2ccc(N[C@@H](CCC(=O)[O-])C(=O)[O-])nc2=O)[C@@H](F)[C@@H]1O |  |  | IC50 (Coxsackievirus [1]; vero): 282 µM; CC50 (Vero): 13.5 µM; TI ([4]; vero): 20.8 |
